Reference: patent publication US10765648B2, “iNKT cell modulators and methods of using the same” (LUDWIG INSTITUTE FOR CANCER RESEARCH, priority 2011, dated 2020)

Experiments:
[1] = target: T1, human iNKT cell TCRs for hCD1d loaded with lipid (Homo sapiens, UniProt P15813); assay: SPR of soluble human iNKT TCR binding to hCD1d-lipid complexes
T1 construct: made in house
T1 sequence (P15813 20-301 limits assumed): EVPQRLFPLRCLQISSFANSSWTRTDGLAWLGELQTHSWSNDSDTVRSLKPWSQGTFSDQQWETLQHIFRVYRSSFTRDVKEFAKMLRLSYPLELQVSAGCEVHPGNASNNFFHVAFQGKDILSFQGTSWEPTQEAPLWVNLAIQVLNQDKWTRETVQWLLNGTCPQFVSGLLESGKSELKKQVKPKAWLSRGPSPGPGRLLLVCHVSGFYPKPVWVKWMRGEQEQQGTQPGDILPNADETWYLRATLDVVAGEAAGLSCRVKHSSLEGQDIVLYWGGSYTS
Source text: The binding kinetics of these ThrCer and α-GalCer analogue compounds were examined. To this end, bacterially-expressed hCD1d and β-2-microglobulin (β 2 M) molecules were refolded with the thioamide, and carbamate analogues of both α-GalCer and ThrCer by oxidative refolding chromatography, and then biotinylated. The urea analogues of α-GalCer and ThrCer could not be refolded, and therefore, no surface plasmon resonance (SPR) data are available for these molecules. Soluble human iNKT TCR was prepared. SPR experiments were used to measure the affinity and kinetics of human iNKT cell TCRs for hCD1d loaded with α-GalCer, ThrCer, and their thioamide and carbamate analogues (FIGS. 5A-5B). To this end, increasing concentrations of TCR were injected for 5 seconds over the indicated complex immobilized on the BIAcore chip until the specific binding reached its plateau. Kd and Bmax were calculated by fitting the data using non-linear regression binding kinetics model (FIGS. 5A-5B). Kinetic measurements for the koff were calculated using BIAevaluation software kit; kon values were calculated from the experimental koff and Kd.
Protein expression and purification: hCD1d and β2m were refolded with α-GalCer, IMM47, IMM60, IMM70 or IMM80 by oxidative chromatography. In summary, CD1d and β2m were overexpressed in E. coli BL21 using a prokaryotic expression system (Novagen, UK). […]

[2] = system: iNKT cells; assay: In vivo anergy of iNKT cells after lipid preconditioning; set-up: species or system mice; conditions: for iNKT cell anergy (IFNγ 18 h after OVA and alphaGalCer at day zero): preconditioned with 100 ng lipid at day −28
Method: The following experiment was designed to assess the in vivo anergy of iNKT cells as defined by their ability to enhance antigen-specific T- and B-cell responses. Mice were pre-conditioned at day −28 with individual lipids shown in FIG. 12 (100 ng i.v. of either alphaGalCer, IMM47, IMM60, or IMM70). Eighteen hours later, mice were bled to assess iNKT cell activation, as defined by IFN-gamma (determined by ELISA(eBioscience)), results shown in FIG. 13. At day zero (28 days after lipid preconditioning), expression of the iNKT cell activation marker PD1 was measured in splenic iNKT cells (FIG. 14).
Eighteen hours later, iNKT cell activation was analyzed by IFNγ expression by ELISA (FIG. 15). At day 7, T cell responses were analyzed (FIG. 16).

[3] = target: T2, iNKT cell TCR (Homo sapiens, UniProt P15813); conditions: cited from earlier work
T2 sequence (P15813 20-301 limits assumed): T1 sequence (P15813 20-301 limits assumed)

[4] = system: human dendritic cells; assay: Lysis of monocyte-derived dendritic cells cultured with human iNKT cells and lipid, PI staining; assay type: cell-based; conditions: 40 hours; for dendritic cell killing: various concentrations
Method: Monocyte-derived dendritic cells and human iNKT cells were cultured with various concentrations of each lipid for 40 hours and then PI stained to determine percent dendritic cell lysis (and percent survival).

[5] = system: EG7 cells (EL4 cells transfected with full length ovalbumin); assay: EG7 tumor regression in mice immunized with OVA plus lipid; assay type: in vivo; conditions: 800 μg OVA plus lipid four days after 1×10^6 EG7 cells
Method: Mice were injected with 1×10^6 EG7 cells (EL4 cells transfected with full length ovalbumin).

CCCCCCCCCCCCCCCCCCCCCCCCCC(=O)N[C@@H](CO[C@H]1O[C@H](CO)[C@H](O)[C@H](O)[C@H]1O)[C@H](O)[C@H](O)CCCCCCCCCCCCCC [α-GalCer 1, α-galactosylceramide]
kon ([1]; calculated from experimental koff and Kd): 2580 ± 90 M⁻¹ s⁻¹
koff ([1]; lipid on CD1d, read-out: experimental koff): 0.565 ± 0.008 s⁻¹
iNKT cell anergy (IFNγ 18 h after OVA and alphaGalCer at day zero) [2]: highest iNKT cell anergy

CCCCCCCCCCCCCCCCCCCCCCCC(=O)NC(COC1OC(CO)C(O)C(O)C1O)C(O)C(O)CCCCC (stereo not shown) [OCH9 12]
Kd ([3]; OCH9 on CD1d): 123 ± 9.08 µM
k0 (on rate) ([3]; OCH9 on CD1d): 23000 ± 1000 M⁻¹ s⁻¹
koff ([3]; OCH9 on CD1d): 2.67 ± 0.12 s⁻¹
interaction with iNKT cell TCRs ([3]; recent study, versus α-GalCer): weaker interactions than α-GalCer

CCCCCCCCCCCCCCCCCCCCCCCCCC(=O)N[C@H](CO[C@H]1CCC[C@H](O)[C@H](O)[C@H]1O)[C@@H](O)[C@@H](O)CCCCCCCCCCCCCC [IMM70, N-((2R,3R,4S)-3,4-dihydroxy-1-(((1S,2R,3S,4S)-2,3,4-trihydroxycycloheptyl)oxy)octadecan-2-yl)hexacosanamide]
percentage of DC lysis ([4]; concentrations lower than 5 ng/ml): very similar to the results obtained with IMM47
T-cell response ([2]; day 7 after immunization of preconditioned mice): highest T-cell response
iNKT cell anergy (IFNγ 18 h after OVA and alphaGalCer at day zero) [2]: functional iNKT cells

CCCCCCCCCCCCCCCCCCCCCCCCCC(=O)N[C@H](CO[C@H]1CC[C@H](O)[C@H](O)[C@H]1O)[C@@H](O)[C@@H](O)CCCCCCCCCCCCCC [IMM60, N-((2R,3R,4S)-3,4-dihydroxy-1-(((1S,2R,3S,4S)-2,3,4-trihydroxycyclohexyl)oxy)octadecan-2-yl)hexacosanamide]
dendritic cell killing [4]: highest dendritic cell killing
iNKT cell activation (IFN-gamma at 18 h, PD1 at 28 days) ([2]; 100 ng i.v. preconditioning at day −28): stronger iNKT cell activation than IMM47, IMM70, or even alphaGalCer
iNKT cell anergy (IFNγ 18 h after OVA and alphaGalCer at day zero) [2]: highest iNKT cell anergy
regression of established tumour [5]: induced regression of the established tumour

CCCCCCCCCCCCCCCCCCCCCCCCCC(=O)N[C@@H](COC[C@H](O)[C@@H](O)CO)[C@H](O)[C@H](O)CCCCCCCCCCCCCC [ThrCer 2, threitolceramide]
dendritic cell killing [4]: lowest dendritic cell killing
iNKT cell anergy (IFNγ 18 h after OVA and alphaGalCer at day zero) [2]: weakest iNKT cell anergy
